Tests used:
[1] = tested on: sputum neutrophils, sputum elastase, C-reactive protein, sputum LTB4; conditions: cited from earlier work
LTB4 production = conditions: cited from earlier work
[2] = in vivo; cited from earlier work
[3] = tested on: sputum neutrophil elastase, sputum neutrophil DNA, serum high-sensitivity C-reactive protein; assay: EMPIRE-CF: biomarkers (sputum DNA and elastase, serum hs-CRP); format: in vivo, human; conditions: compared with reductions seen in phase 1 trial
Procedure: (§1) Pulmonary exacerbations were analyzed both as the time to first pulmonary exacerbation and the rate of pulmonary exacerbations. The time to first protocol defined-pulmonary exacerbation were analyzed using a Cox proportional hazards model. The number of protocol-defined pulmonary exacerbations reported through the Week 48/Early Termination visit were annualized (where a year was defined as 52 weeks) analyzed using a negative binomial regression. The two active doses were compared to placebo individually as well as pooled together using a contrast statement similar to that used for the primary analysis. Point estimates, standard errors, and 95% CIs for the mean of number of pulmonary exacerbations were presented. The difference in means between each CTX-4430 group from placebo were presented along with standard errors and 95% CIs. Spirometry-based endpoints were analyzed using the same methods as the primary endpoint. Analyses of sputum DNA and elastase and serum high-sensitivity C-reactive protein were based upon descriptive statistics by treatment group.

[4] = Phase I studies; cited from earlier work
[5] = tested on: adult patients with cystic fibrosis; assay: EMPIRE-CF Phase II randomized placebo-controlled trial: pulmonary exacerbations; format: in vivo, human; conditions: for adjusted mean (95% CI) annualized pulmonary exacerbation rate: all lung disease phenotypes; for adjusted mean (95% CI) annualized pulmonary exacerbation rate / proportion of patients who did not experience a pulmonary exacerbation during the study period: 48 weeks; for patients who did not have a pulmonary exacerbation during the study: baseline FEV1pp>75% (mild disease)
Source text: EMPIRE-CF was a Phase II multicenter, randomized, double-blind, placebo-controlled, parallel-group study to evaluate the efficacy and safety of acebilustat in adult patients with CF (NCT02443688). The study consisted of a 48-week treatment period and follow-up visit 4 weeks after treatment completion. Screening visits occurred up to 21 days prior to the first study drug dose (FIG. 2).
Patients were enrolled from 69 centers in the USA, Canada, and Europe. All centers were experienced in CF care and the conduct of clinical trials. In brief, adult women and men 18-30 years old with a documented diagnosis of CF, an FEV1pp≥50% at screening and at least one pulmonary exacerbation in the previous year were enrolled. Baseline demographics are presented in the section below.
Patients were randomized 1:1:1 to receive either once-daily oral acebilustat 50 mg or 100 mg (Celtaxsys, Atlanta, GA, USA), or placebo supplied as capsules. The two acebilustat doses were selected based on the levels of reduction of serum LTB4 production seen in Phase I studies.
Pulmonary exacerbations were defined as the requirement for oral, inhaled or intravenous antibiotics for four or more signs or symptoms according to the modified Fuch's criteria (change in sputum; new or increased hemoptysis; increased cough; increased dyspnea; malaise, fatigue or lethargy; temperature >38° C.; anorexia or weight loss; sinus pain or tenderness; change in sinus discharge; change in physical examination of the chest; ≥10% absolute decrease in FEV1pp from the previously recorded value; radiographic changes indicative of pulmonary infection) [Fuchs et al., 1994], referred collectively (antibiotics plus the four or more signs and symptoms) as expanded Fuchs criteria. The date the pulmonary exacerbation began was defined as the first day of antibiotic use.
as §1
The annual rate of pulmonary exacerbations was calculated by standard methods for each treatment group.

[6] = tested on: adult patients with cystic fibrosis; assay: EMPIRE-CF: safety and tolerability; format: in vivo, human; conditions: 48 weeks
Source text: Treatment-emergent adverse events (TEAEs), including serious adverse events, were collected at each visit, and summarized by MEDRA system organ class and preferred term, severity, and relatedness to the study drug. An independent data monitoring committee monitored the safety and study conduct at approximately 8-week intervals.

[7] = once-daily, adult patients with CF
[8] = 100 mg dose, baseline FEV1pp>75%, FAP
[9] = FEV1pp greater than 75 and concomitant CFTR modulator therapy
[10] = FEV1pp>75 at baseline, 100 mg dose
[11] = acebilustat-treated patients overall, analysis population not given
[12] = baseline FEV1pp>75%, FAP, 50 mg
[13] = baseline FEV1pp>75%, FAP, 100 mg
[14] = concomitant CFTR modulator therapy, 100 mg dose

O=C(O)c1ccc(CN2C[C@@H]3C[C@H]2CN3Cc2ccc(Oc3ccc(-c4ncco4)cc3)cc2)cc1 [acebilustat, 4-{[(1S,4S)-5-({4-[4-oxazol-2-yl-phenoxy]phenyl}methyl)-2,5-diazabicyclo[2.2.1]heptan-2-yl]methyl}benzoic acid]
C-reactive protein ([1]; acebilustat treated groups): Numerical reductions | reduction of sputum elastase levels [1, 7]: up to 58% | reduction of sputum neutrophil levels [1, 7]: up to 65% | sputum LTB4 levels, acebilustat- vs placebo-treated patients ([1]; patients with CF): decreased significantly | peak reduction in LTB4 production (LTB4 production; 50 mg dose): ~75% | reduction of serum LTB4 production (LTB4 production; 100 mg dose, near-maximum): 86% | AUC0-24 at steady state, fed vs fasting [2]: no differences | Cmax or AUC0-24, healthy volunteers versus patients with CF [2]: No significant differences | sputum neutrophil elastase, sputum neutrophil DNA and serum hs-CRP versus placebo [3]: did not observe similar changes | drug-related serious adverse events [4]: no drug-related serious AEs | tolerability [4]: well tolerated | rate of pulmonary exacerbations requiring hospitalization as compared to placebo [5, 8]: lower rate | rate of pulmonary exacerbations requiring intravenous antibiotics as compared to placebo [5, 8]: lower the rate | Annualized Rate of Pulmonary Exacerbation (Adjusted Mean) ([5]; Baseline ppFEV1 >60, 50 mg): 1.44 | Annualized Rate of Pulmonary Exacerbation, % difference from Placebo ([5]; Baseline ppFEV1 >60, 50 mg): −2% | Annualized Rate of Pulmonary Exacerbation (Adjusted Mean) ([5]; Baseline ppFEV1 >60, 100 mg): 1.27 | Annualized Rate of Pulmonary Exacerbation, % difference from Placebo ([5]; Baseline ppFEV1 >60, 100 mg): −14% | Annualized Rate of Pulmonary Exacerbation (Adjusted Mean) ([5]; Baseline ppFEV1 >65, 50 mg): 1.25 | Annualized Rate of Pulmonary Exacerbation, % difference from Placebo ([5]; Baseline ppFEV1 >65, 50 mg): −14% | Annualized Rate of Pulmonary Exacerbation (Adjusted Mean) ([5]; Baseline ppFEV1 >65, 100 mg): 1.05 | Annualized Rate of Pulmonary Exacerbation, % difference from Placebo ([5]; Baseline ppFEV1 >65, 100 mg): −28% | Annualized Rate of Pulmonary Exacerbation (Adjusted Mean) ([5]; Baseline ppFEV1 >68, 50 mg): 1.12 | Annualized Rate of Pulmonary Exacerbation, % difference from Placebo ([5]; Baseline ppFEV1 >68, 50 mg): −7% | Annualized Rate of Pulmonary Exacerbation (Adjusted Mean) ([5]; Baseline ppFEV1 >68, 100 mg): 0.81 | Annualized Rate of Pulmonary Exacerbation, % difference from Placebo ([5]; Baseline ppFEV1 >68, 100 mg): −33% | Annualized Rate of Pulmonary Exacerbation (Adjusted Mean) ([5]; Baseline ppFEV1 >70, 50 mg): 1.2 | Annualized Rate of Pulmonary Exacerbation, % difference from Placebo ([5]; Baseline ppFEV1 >70, 50 mg): −22% | Annualized Rate of Pulmonary Exacerbation (Adjusted Mean) ([5]; Baseline ppFEV1 >70, 100 mg): 0.92 | Annualized Rate of Pulmonary Exacerbation, % difference from Placebo ([5]; Baseline ppFEV1 >70, 100 mg): −40% | Annualized Rate of Pulmonary Exacerbation (Adjusted Mean) ([5]; Baseline ppFEV1 >75, 50 mg): 1.28 | Annualized Rate of Pulmonary Exacerbation, % difference from Placebo ([5]; Baseline ppFEV1 >75, 50 mg): −20% | Annualized Rate of Pulmonary Exacerbation (Adjusted Mean) ([5]; Baseline ppFEV1 >75, 100 mg): 0.84 | Annualized Rate of Pulmonary Exacerbation, % difference from Placebo ([5]; Baseline ppFEV1 >75, 100 mg): −48% | time at which divergence in pulmonary exacerbation from placebo occurred ([5]; FAP and PP analysis): approximately 4 months | adjusted mean (95% CI) annualized pulmonary exacerbation rate ([5]; FAP, 50 mg once daily oral): 1.46 (1.13, 1.89) | adjusted mean (95% CI) annualized pulmonary exacerbation rate ([5]; FAP, 100 mg once daily oral): 1.57 (1.22, 2.02) | adjusted mean (95% CI) annualized pulmonary exacerbation rate ([5]; FAP, combined acebilustat groups): 1.51 (1.26, 1.81) | time to first pulmonary exacerbation, hazard ratio versus placebo (95% CI) ([5]; FAP, 50 mg): 0.86 (0.563, 1.308) | proportion of patients who did not experience a pulmonary exacerbation during the study period ([5]; FAP, 50 mg): 39% | time to first pulmonary exacerbation, hazard ratio versus placebo (95% CI) ([5]; FAP, 100 mg): 0.88 (0.576, 1.339) | proportion of patients who did not experience a pulmonary exacerbation during the study period ([5]; FAP, 100 mg): 38% | time to first pulmonary exacerbation, hazard ratio versus placebo (95% CI) ([5]; FAP, acebilustat combined group): 0.87 (0.605, 1.246) | proportion of patients who did not experience a pulmonary exacerbation during the study period ([5]; FAP, combined acebilustat dose group): 38% | response to acebilustat treatment (rate of exacerbations, hazard ratio) ([5]; FEV1 at or below 75% (≤75%)): did not exhibit the same level of response | decrease in the rate of pulmonary exacerbations versus placebo [5, 9]: 54% | higher proportion of patients exacerbation free at 48 weeks versus placebo [5, 9]: 165% | decrease in the rate of pulmonary exacerbations versus placebo ([5]; FEV1pp greater than 75 and concomitant CFTR modulator therapy, 100 mg dose): 65% | higher proportion of patients exacerbation free after 48 weeks of treatment versus placebo [5, 10]: 100% | reduction in PEx rate versus placebo [5, 10]: 48% | reduction in risk of experiencing first exacerbation versus placebo [5, 10]: 48% | more patients with no PEx during the study compared with placebo [5, 11]: 32% | reduced risk in progressing to first PEx versus placebo [5, 11]: 22% | reduction in PEx versus placebo [5, 11]: 18% | response to acebilustat treatment (rate of pulmonary exacerbations) ([5]; baseline FEV1pp at or below the median (≤68%)): did not exhibit the same level of response | annual rate of pulmonary exacerbations versus placebo ([5]; baseline FEV1pp higher than the median (>68%)): lower annual rate of pulmonary exacerbations versus placebo | patients who did not have a pulmonary exacerbation during the study ([5]; 50 mg): 48% | patients who did not have a pulmonary exacerbation during the study ([5]; 100 mg): 50% | patients who did not have a pulmonary exacerbation during the study ([5]; combined acebilustat group): 49% | adjusted mean (95% CI) annualized rate of pulmonary exacerbations [5, 12]: 1.28 (0.84, 1.96) | time to first pulmonary exacerbation, hazard ratio (95% CI) versus placebo [5, 12]: 0.62 (0.304, 1.274) | adjusted mean (95% CI) annualized rate of pulmonary exacerbations [5, 13]: 0.84 (0.49, 1.44) | time to first pulmonary exacerbation, hazard ratio (95% CI) versus placebo [5, 13]: 0.52 (0.245, 1.101) | time to first pulmonary exacerbation, hazard ratio (95% CI) versus placebo ([5]; baseline FEV1pp>75%, FAP, acebilustat combined group): 0.57 (0.307, 1.051) | adjusted mean (95% CI) annualized rate of pulmonary exacerbations ([5]; baseline FEV1pp>75%, FAP, combined acebilustat groups): 1.04 (0.74, 1.46) | reduction in rate of PEx versus CFTR modulators and placebo ([5]; concomitant CFTR modulator therapy, regardless of disease severity, 100 mg dose): 14% | higher proportion of patients with no exacerbations versus CFTR modulators and placebo [5, 14]: 51% | increased time to first exacerbation versus CFTR modulators and placebo [5, 14]: 27% | higher percentage of patients that were exacerbation free ([5]; patients off CFTR modulator therapy): about 15% | severity of the majority of adverse events [6]: mild or moderate | tolerability and risk of infection [6]: safe and well tolerated | tolerability and risk of infection ([6]; listed as Acebilustat): well tolerated with no increased risk of infection
